Measured values: patent publication US8722849B2, “Polypeptides” (Novo Nordisk A/S, priority 2011, dated 2014)
Values after ≈ are worked out from the molar mass of the structure shown. Read-outs that look alike come from different tables or passages of the source. Starred links: 1 amine or outer side, 2 acyl side, 3 side chain; linkers in the order of their positions; H or OH if unused. Positions of bridges follow the written chain, without caps; N, C: chain ends. Residues, ends and D or L forms follow the SMILES beside them. *: point of attachment. C20 diacid = O=C(O)CCCCCCCCCCCCCCCCCCC(=O)*; γGlu = O=C(O)[C@H](CCC(=O)[*:2])N[*:1]

Assays:
[1] = target: T1, human amylin receptor (amylin 3(a) receptor: human calcitonin receptor + RAMP-3) (Homo sapiens, UniProt O60896+P30988); assay: Assay (II)a functional CRE-luciferase assay, human amylin receptor; assay type: cell-based
T1 construct: expressed in transfected cells; host or cells: BHK570
T1 sequence (P30988 25-474): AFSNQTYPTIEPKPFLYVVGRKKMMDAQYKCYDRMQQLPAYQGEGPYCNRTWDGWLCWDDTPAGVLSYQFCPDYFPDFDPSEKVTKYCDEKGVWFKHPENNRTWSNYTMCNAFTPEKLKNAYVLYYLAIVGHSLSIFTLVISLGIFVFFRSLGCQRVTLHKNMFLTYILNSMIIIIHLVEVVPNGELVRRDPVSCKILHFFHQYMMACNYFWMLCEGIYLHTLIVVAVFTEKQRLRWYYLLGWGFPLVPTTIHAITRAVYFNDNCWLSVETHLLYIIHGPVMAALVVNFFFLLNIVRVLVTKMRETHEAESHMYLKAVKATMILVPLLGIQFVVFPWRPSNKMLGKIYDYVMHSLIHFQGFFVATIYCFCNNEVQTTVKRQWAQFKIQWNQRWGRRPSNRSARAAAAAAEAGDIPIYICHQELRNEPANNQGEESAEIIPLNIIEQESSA
T1 sequence (O60896 24-148 partner): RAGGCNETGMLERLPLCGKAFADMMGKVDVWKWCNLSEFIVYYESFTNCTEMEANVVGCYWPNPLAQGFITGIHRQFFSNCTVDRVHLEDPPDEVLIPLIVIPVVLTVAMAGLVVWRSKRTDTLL

[2] = target: T2, human calcitonin receptor (Homo sapiens, UniProt P30988); assay: Assay (II)a functional CRE-luciferase assay, human calcitonin receptor; assay type: cell-based
T2 construct: expressed in transfected cells; host or cells: BHK570
T2 sequence (P30988 25-474): T1 sequence (P30988 25-474)

[3] = Assay (III) ThT fibrillation assay for physical stability; assay type: physicochemical; settings: ThT fibrillation assay
How it was run: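 Freshly prepared formulations, pH-adjusted, with 1 μM ThT; four or eight replicates incubated at 37 °C under 960 rpm orbital shaking. Fluorescence (ex 444/em 485 nm) read every 20 min; […]. Peptide concentration measured by RP-HPLC before and after the run.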

[4] = Assay (IV) determination of solubility; assay type: physicochemical
How it was run: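 Solubility was profiled across pH 3.0–8.0 after 18 hours at room temperature: a ~500 nmol/ml aqueous polypeptide solution was diluted 1:1 into 100 mM glycylglycine or bistrispropane buffers. After centrifugation, HPLC gave the dissolved concentration.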

[5] = Table 2, BHK amylin 3(a)-receptor/CRE-luc cells
[6] = Table 7, human calcitonin (CTa) receptor
[7] = bistrispropane buffer, pH 6, pH 6.0, read-out: Solubility pH 6.0
[8] = bistrispropane buffer, pH 6.5, pH 6.5, read-out: Solubility pH 6.5
[9] = bistrispropane buffer, pH 7, pH 7.0, read-out: Solubility pH 7.0
[10] = bistrispropane buffer, pH 7.5, pH 7.5, read-out: Solubility pH 7.5
[11] = bistrispropane buffer, pH 8, pH 8.0, read-out: Solubility pH 8.0
[12] = glycylglycine buffer, pH 3, pH 3.0, read-out: Solubility pH 3.0
[13] = glycylglycine buffer, pH 4, pH 4.0, 18 hours at room temperature, Table 2, read-out: Solubility pH 4.0
[14] = glycylglycine buffer, pH 4, pH 4.0, read-out: Solubility pH 4.0
[15] = glycylglycine buffer, pH 5, pH 5.0, read-out: Solubility pH 5.0
[16] = Table 11, read-out: CTa receptor human EC50

Structure (SMILES) | EC50 [1, 5] [nM] | EC50 [2, 6] [nM] | ThT pH 4.0 lag time [3] [h] | ThT pH 4.0 lag time (h) [3] [h] | solubility at 18 h [4, 7] [µM] | solubility at 18 h [4, 8] [µM] | solubility at 18 h [4, 9] [µM] | solubility at 18 h [4, 10] [µM] | solubility at 18 h [4, 11] [µM] | solubility at 18 h [4, 12] [µM] | solubility at 18 h [4, 13] [µM] | solubility at 18 h [4, 14] [µM] | solubility at 18 h [4, 15] [µM] | EC50 ([1]; Table 6, human amylin receptor) [nM] | EC50 [2, 16] [nM] | EC50 ([1]; Table 11) [nM] | solubility at 18 h ([4]; pH 8.0, read-out: Solubility pH 8.0) [µM]
CC[C@H](C)[C@H](NC(=O)[C@@H]1CCCN1C(=O)CNC(=O)[C@H](Cc1ccccc1)NC(=O)[C@H](CC(N)=O)NC(=O)[C@H](CC(N)=O)NC(=O)[C@H](CO)NC(=O)[C@H](CO)NC(=O)[C@H](CCCNC(=N)N)NC(=O)[C@H](Cc1c[nH]cn1)NC(=O)[C@H](CC(C)C)NC(=O)[C@H](Cc1ccccc1)NC(=O)[C@H](CCC(=O)O)NC(=O)[C@H](C)NC(=O)[C@H](CC(C)C)NC(=O)[C@H](CCCNC(=N)N)NC(=O)[C@H](CCC(N)=O)NC(=O)[C@@H](NC(=O)[C@H](C)NC(=O)[C@@H]1CSSC[C@H](NC(=O)[C@H](Cc2c[nH]cn2)NC(=O)CC[C@H](NC(=O)CCCCCCCCCCCCCCCCCCC(=O)O)C(=O)O)C(=O)N[C@@H](CC(N)=O)C(=O)N[C@@H]([C@@H](C)O)C(=O)N[C@@H](C)C(=O)N[C@@H]([C@@H](C)O)C(=O)N1)[C@@H](C)O)C(=O)N[C@@H](CC(C)C)C(=O)N1CCC[C@H]1C(=O)N1CCC[C@H]1C(=O)N[C@H](C(=O)N[C@@H](CC(N)=O)C(=O)N[C@H](C(=O)NCC(=O)N[C@@H](CO)C(=O)N[C@@H](Cc1c[nH]cn1)C(=O)N[C@H](C(=O)N[C@@H](Cc1ccc(O)cc1)C(N)=O)[C@@H](C)O)C(C)C)[C@@H](C)O [Example 77, N-alpha-[(S)-4-Carboxy-4-(19-carboxynonadecanoylamino)butyryl]-[His1,Glu14,His17,Arg18,His35]-pramlintide] ({C20 diacid-γGlu}-HCNTATCATQRLAEFLHRSSNNFGPILPPTNVGSHTY-NH2; disulfide 2-7 (inferred); C-terminus assumed) | 0.066 | 0.11 | >45 | >45 | 185 (≈ 834 µg/mL) | 23 (≈ 104 µg/mL) | 5 (≈ 22.5 µg/mL) | 33 (≈ 149 µg/mL) | 94 (≈ 424 µg/mL) | > 200 | > 200 | > 200 | > 200 | – | – | – | –
CC[C@H](C)[C@H](NC(=O)[C@@H]1CCCN1C(=O)CNC(=O)[C@H](Cc1ccccc1)NC(=O)[C@H](CC(N)=O)NC(=O)[C@H](CC(N)=O)NC(=O)[C@H](CO)NC(=O)[C@H](CO)NC(=O)[C@H](Cc1c[nH]cn1)NC(=O)[C@H](Cc1c[nH]cn1)NC(=O)[C@H](CC(C)C)NC(=O)[C@H](Cc1ccccc1)NC(=O)[C@H](CCC(=O)O)NC(=O)[C@H](C)NC(=O)[C@H](CC(C)C)NC(=O)[C@H](CCCNC(=N)N)NC(=O)[C@H](CCC(N)=O)NC(=O)[C@@H](NC(=O)[C@H](C)NC(=O)[C@@H]1CSSC[C@H](NC(=O)[C@H](CCCNC(=N)N)NC(=O)CNC(=O)CC[C@H](NC(=O)CCCCCCCCCCCCCCCCCCC(=O)O)C(=O)O)C(=O)N[C@@H](CC(N)=O)C(=O)N[C@@H]([C@@H](C)O)C(=O)N[C@@H](C)C(=O)N[C@@H]([C@@H](C)O)C(=O)N1)[C@@H](C)O)C(=O)N[C@@H](CC(C)C)C(=O)N1CCC[C@H]1C(=O)N1CCC[C@H]1C(=O)N[C@H](C(=O)N[C@@H](CC(N)=O)C(=O)N[C@H](C(=O)NCC(=O)N[C@@H](CO)C(=O)N[C@@H](Cc1c[nH]cn1)C(=O)N[C@H](C(=O)N[C@@H](Cc1ccc(O)cc1)C(N)=O)[C@@H](C)O)C(C)C)[C@@H](C)O [Example 100, N-alpha-[(S)-4-Carboxy-4-(19-carboxynonadecanoylamino)butyryl]-Gly-[Arg1,Glu14,His17,His35]-pramlintide] ({C20 diacid-γGlu}-GRCNTATCATQRLAEFLHHSSNNFGPILPPTNVGSHTY-NH2; disulfide 3-8 (inferred)) | 0.0675 | 0.0895 | 26 | 26 | > 200 | 28 (≈ 128 µg/mL) | 9 (≈ 41.1 µg/mL) | 30 (≈ 137 µg/mL) | 95 (≈ 434 µg/mL) | > 200 | > 200 | > 200 | > 200 | – | – | – | –
CC[C@H](C)[C@H](NC(=O)[C@@H]1CCCN1C(=O)CNC(=O)[C@H](Cc1ccccc1)NC(=O)[C@H](CC(N)=O)NC(=O)[C@H](CC(N)=O)NC(=O)[C@H](CO)NC(=O)[C@H](CO)NC(=O)[C@H](Cc1c[nH]cn1)NC(=O)[C@@H](NC(=O)[C@H](CC(C)C)NC(=O)[C@H](Cc1ccccc1)NC(=O)[C@H](CC(N)=O)NC(=O)[C@H](C)NC(=O)[C@H](CC(C)C)NC(=O)[C@H](CCCNC(=N)N)NC(=O)[C@H](CCC(N)=O)NC(=O)[C@@H](NC(=O)[C@H](C)NC(=O)[C@@H]1CSSC[C@H](NC(=O)[C@H](CCC(=O)O)NC(=O)[C@H](CCCNC(=N)N)NC(=O)[C@H](CCC(=O)O)NC(=O)CC[C@H](NC(=O)CCCCCCCCCCCCCCCCCCC(=O)O)C(=O)O)C(=O)N[C@@H](CC(N)=O)C(=O)N[C@@H]([C@@H](C)O)C(=O)N[C@@H](C)C(=O)N[C@@H]([C@@H](C)O)C(=O)N1)[C@@H](C)O)C(C)C)C(=O)N[C@@H](CC(C)C)C(=O)N1CCC[C@H]1C(=O)N1CCC[C@H]1C(=O)N[C@H](C(=O)N[C@@H](CC(N)=O)C(=O)N[C@H](C(=O)NCC(=O)N[C@@H](CO)C(=O)N[C@@H](CC(N)=O)C(=O)N[C@H](C(=O)N1CCC[C@H]1C(N)=O)[C@@H](C)O)C(C)C)[C@@H](C)O [Example 122, N-alpha-[(S)-4-Carboxy-4-(19-carboxynonadecanoylamino)butyryl]-Glu-Arg-[Glu1,Pro37]-pramlintide] ({C20 diacid-γGlu}-ERECNTATCATQRLANFLVHSSNNFGPILPPTNVGSNTP-NH2; disulfide 4-9 (inferred); C-terminus assumed) | – | – | – | 0.7 | > 200 | > 200 | > 200 | > 200 | > 200 | > 200 | – | > 200 | > 200 | 0.063 | 0.061 | – | –
CC[C@H](C)[C@H](NC(=O)[C@@H]1CCCN1C(=O)CNC(=O)[C@H](Cc1ccccc1)NC(=O)[C@H](CC(N)=O)NC(=O)[C@H](CC(N)=O)NC(=O)[C@H](CO)NC(=O)[C@H](CO)NC(=O)[C@H](Cc1c[nH]cn1)NC(=O)[C@@H](NC(=O)[C@H](CC(C)C)NC(=O)[C@H](Cc1ccccc1)NC(=O)[C@H](CC(N)=O)NC(=O)[C@H](C)NC(=O)[C@H](CC(C)C)NC(=O)[C@H](CCCNC(=N)N)NC(=O)[C@H](CCC(N)=O)NC(=O)[C@@H](NC(=O)[C@H](C)NC(=O)[C@@H]1CSSC[C@H](NC(=O)[C@H](CCCNC(=N)N)NC(=O)CC[C@H](NC(=O)CCCCCCCCCCCCCCCCCCC(=O)O)C(=O)O)C(=O)N[C@@H](CC(N)=O)C(=O)N[C@@H]([C@@H](C)O)C(=O)N[C@@H](C)C(=O)N[C@@H]([C@@H](C)O)C(=O)N1)[C@@H](C)O)C(C)C)C(=O)N[C@@H](CC(C)C)C(=O)N1CCC[C@H]1C(=O)N1CCC[C@H]1C(=O)N[C@H](C(=O)N[C@@H](CC(N)=O)C(=O)N[C@H](C(=O)NCC(=O)N[C@@H](CO)C(=O)N[C@@H](Cc1c[nH]cn1)C(=O)N[C@H](C(=O)N[C@@H](Cc1ccc(O)cc1)C(N)=O)[C@@H](C)O)C(C)C)[C@@H](C)O [Example 98] ({C20 diacid-γGlu}-RCNTATCATQRLANFLVHSSNNFGPILPPTNVGSHTY-NH2; disulfide 2-7 (inferred); C-terminus assumed) | – | – | – | 2.6 | 85 (≈ 379 µg/mL) | 1 (≈ 4.45 µg/mL) | 1 (≈ 4.45 µg/mL) | 1 (≈ 4.45 µg/mL) | – | > 200 | – | > 200 | > 200 | – | 0.193 | 0.0745 | 1 (≈ 4.45 µg/mL)
